≈ marks a conversion by molar mass, not a printed value.
Conditions: buffer; pH 7.4; 200.0 µM
With `Cc1ccc(-c2ccc(S(=O)(=O)Nc3cccnc3)cc2)cc1` the solubility kinetic was 0.5 µg/mL (≈ 1.54 µM). Molecule `Cn1cc(C=C2C(=O)NC(=O)NC2=O)c2ccccc21` has a solubility kinetic of 2.6 µg/mL (≈ 9.66 µM). Molecule `COc1cccc(OCC(O)CNC(=O)c2oc3ccc(C)cc3c2C)c1` (stereo not given) has a solubility kinetic of 20.2 µg/mL (≈ 54.7 µM). In the case of `O=C(O)c1ccc(N2C(=O)c3cccc4cccc(c34)C2=O)cc1`, the solubility kinetic is reported as greater than 47.6 µg/mL. For `S=C(NC1CC1)N1CCN(C(=S)NC2CC2)CC1`, the solubility kinetic was greater than 42.7 µg/mL. Molecule `NC(=O)C1CCN(C(=O)c2ccc3ccccc3c2)CC1` has a solubility kinetic greater than 42.4 µg/mL. Molecule `CCc1ccc(C(=O)Nc2cc(C)ccc2F)s1` has a solubility kinetic of 16.6 µg/mL (≈ 63 µM). With `N#Cc1c(N)nc2c(c1N)CC(C(F)(F)F)O2` (stereo not given) the solubility kinetic was greater than 36.6 µg/mL. For `Cn1cnnc1SCC(=O)NC1CC1`, the solubility kinetic was greater than 31.8 µg/mL. With `O=C(CCNS(=O)(=O)c1ccc(F)c(Cl)c1)NCc1ccccc1F` the solubility kinetic was 27.2 µg/mL (≈ 70 µM). Work on `Cc1cc(C)c(C#N)c(SCC(=O)Nc2cc(C)on2)n1` yielded a solubility kinetic of 2.1 µg/mL (≈ 6.95 µM). In the case of `CC(C)(CNC(=O)c1cccc(F)c1)CNC(=O)c1cccc(F)c1`, the solubility kinetic is reported as 13.2 µg/mL (≈ 38.1 µM). `CSc1ccccc1C(=O)Nc1cccc([N+](=O)[O-])c1` gave a solubility kinetic of 28.2 µg/mL (≈ 97.8 µM). In the case of `Cc1ccc2c(CN(C)Cc3cccc(F)c3)cc(=O)oc2c1`, the solubility kinetic is reported as 2 µg/mL (≈ 6.42 µM). Molecule `Cc1cc(O)c(NC(=O)c2cccc([N+](=O)[O-])c2)cc1C` has a solubility kinetic of less than 0.3 µg/mL. For `Cc1c(C)c2ccc(OCC(=O)N3CCOCC3)c(C)c2oc1=O`, the solubility kinetic was greater than 49.7 µg/mL. Molecule `CC(C)c1ccc(C(O)c2nc3ccccc3n2C)cc1` (stereo not given) has a solubility kinetic of 10.3 µg/mL (≈ 36.7 µM). Molecule `O=C(CCNC(=O)c1ccccc1Cl)NC1=NCCS1` has a solubility kinetic of 42.8 µg/mL (≈ 137 µM). For `COc1cccc(Nc2nc3cc(OC)ccc3cc2C#N)c1`, the solubility kinetic was 0.2 µg/mL (≈ 0.655 µM). With `CCc1ccc(C(=O)COC(=O)c2cnc(C)cn2)cc1` the solubility kinetic was greater than 42.6 µg/mL. `Cc1ccc2oc(/N=C(\N)NC(=O)C(C)(C)C)nc2c1` showed a solubility kinetic of 1.2 µg/mL (≈ 4.37 µM). Molecule `CCS(=O)c1ccccc1C(=O)OCC(=O)Nc1ccc2ccccc2c1` (stereo not given) has a solubility kinetic of 45.8 µg/mL (≈ 120 µM). `Nn1c(C2CCCCC2)nc2ccccc2c1=O` gave a solubility kinetic greater than 36.5 µg/mL. `CN(C)CC(C)(C)CNc1ccc(S(=O)(=O)N2CCCC2)cn1` showed a solubility kinetic greater than 51.1 µg/mL. Work on `O=C(NC1CCCCC1)C1CC(=O)N(c2ccccc2)C1` (stereo not given) yielded a solubility kinetic of 38.5 µg/mL (≈ 134 µM). In the case of `O=C(NCc1ccco1)c1nn2cccnc2c1Cl`, the solubility kinetic is reported as greater than 41.5 µg/mL. In the case of `O=C(Nc1ccccc1)Nc1cccc2ccccc12`, the solubility kinetic is reported as 0.3 µg/mL (≈ 1.14 µM). `Cc1ccccc1C(=O)N1CCN(C(c2ccccc2)c2ccccc2)CC1.Cl` showed a solubility kinetic of 7.8 µg/mL. With `O=C(CSc1nc2ccccc2o1)N/N=C/c1ccc(C(=O)O)cc1` the solubility kinetic was greater than 53.3 µg/mL. With `COC(=O)c1ccc(C(=O)OC)c(NC(=O)CN2CCC(C)CC2)c1` the solubility kinetic was 0.6 µg/mL (≈ 1.72 µM). In the case of `CCCC[n+]1c(C)sc2cc(OC)ccc21.[I-]`, the solubility kinetic is reported as 31.9 µg/mL. Molecule `COc1ccc(NS(=O)(=O)c2cccc(C(=O)OCC(=O)c3c(N)n(C)c(=O)n(C)c3=O)c2)cc1` has a solubility kinetic of 16.4 µg/mL (≈ 32.6 µM). `COc1ccc(OC(=O)C(C)N2C(=O)c3ccccc3C2=O)cc1` (stereo not given) showed a solubility kinetic of 33.3 µg/mL (≈ 102 µM). Work on `Cc1cc(C(=O)OCC(=O)N2CCOCC2)c(C)n1-c1ccccc1` yielded a solubility kinetic of 48.6 µg/mL (≈ 142 µM). Molecule `Cc1ccc(NC(=O)N2CCN(C(=O)C3CCCO3)CC2)cc1` (stereo not given) has a solubility kinetic greater than 47.6 µg/mL. With `C=CCCC(=O)N1CCCC(C(=O)c2cccc(OC)c2)C1` (stereo not given) the solubility kinetic was 40.7 µg/mL (≈ 135 µM). Molecule `CCOC(=O)c1cc(C)nc(SC)c1C#N` has a solubility kinetic of 16.9 µg/mL (≈ 71.5 µM). Work on `CCC(C)(CCNC(=O)Cc1ccccc1)c1ccccc1OC` (stereo not given) yielded a solubility kinetic of 15 µg/mL (≈ 46.1 µM). Work on `Cc1ccc(S(=O)(=O)N2CCN(c3ncnc4sccc34)CC2)cc1` yielded a solubility kinetic of 17.5 µg/mL (≈ 46.7 µM). Molecule `Cc1oc(C(C)(C)C)cc1C(N)=O` has a solubility kinetic greater than 27.2 µg/mL. Work on `Cc1cc(NC(=O)CSc2cc(C)c3ccccc3n2)no1` yielded a solubility kinetic of 2.2 µg/mL (≈ 7.02 µM). With `Nc1cc(=O)[nH]c(=O)n1-c1ccc(Cl)cc1` the solubility kinetic was greater than 35.6 µg/mL. Molecule `CCc1cccc(CC)c1NC(=O)CSc1nnc(C2CC2)n1C` has a solubility kinetic greater than 51.7 µg/mL. `COc1ccc(NC(=S)Nc2ccccc2)c(OC)c1` showed a solubility kinetic greater than 43.3 µg/mL. `COc1cccc(N2CCN(c3nc(C)cc(=O)[nH]3)CC2)c1` gave a solubility kinetic of 44.6 µg/mL (≈ 148 µM). Work on `CC1CCC(NC(=O)C2COc3ccccc3O2)CC1` (stereo not given) yielded a solubility kinetic of 5.5 µg/mL (≈ 20 µM). For `COC(=O)c1cc(NC(=O)c2c(C)noc2C)ccc1N1CCOCC1`, the solubility kinetic was greater than 53.9 µg/mL. `Cc1noc(C)c1C(=O)NCC(=O)Nc1ccccc1Br` gave a solubility kinetic greater than 52.8 µg/mL. In the case of `Cc1ccc(CN2CCc3[nH]c(=S)[nH]c(=O)c3C2)cc1`, the solubility kinetic is reported as 10.5 µg/mL (≈ 36.5 µM). `COC(=O)CSc1nc(NCc2ccccc2)nc(N(C)C)n1` showed a solubility kinetic of 0.3 µg/mL (≈ 0.9 µM). Molecule `COc1ccc(N2CC(C(=O)NC3CCSC3=O)CC2=O)cc1` (stereo not given) has a solubility kinetic greater than 50.2 µg/mL. With `Cc1ccc(OCCC(=O)OCC(=O)NC2CCCC2)cc1` the solubility kinetic was greater than 45.8 µg/mL. In the case of `C=C(C)c1cccc(C(C)(C)NC(=O)N2CCN(c3ccccc3)CC2)c1`, the solubility kinetic is reported as 0.3 µg/mL (≈ 0.825 µM). For `CC1CCCC(NC(=O)CCCn2c(=S)[nH]c3ccccc3c2=O)C1C` (stereo not given), the solubility kinetic was less than 0.3 µg/mL. Molecule `CN1c2ccccc2C(=O)C(=C2SCCCS2)S1(=O)=O` has a solubility kinetic of 27 µg/mL (≈ 82.5 µM). In the case of `Br.Fc1ccc(CNCC2CCCO2)cc1` (stereo not given), the solubility kinetic is reported as 39.1 µg/mL. With `COc1ccc(NC(=O)Nc2cccc3ccccc23)cc1OC` the solubility kinetic was 0.4 µg/mL (≈ 1.24 µM). `O=C(O)C1CCCN1S(=O)(=O)c1ccc(Cl)cc1` (stereo not given) showed a solubility kinetic greater than 43.5 µg/mL. With `CCOc1ncccc1C(=O)Nc1ccccc1N1CCOCC1` the solubility kinetic was greater than 49.1 µg/mL. `CC1CCCN(c2c([N+](=O)[O-])cc(C(=O)O)cc2[N+](=O)[O-])C1` (stereo not given) gave a solubility kinetic of 46.2 µg/mL (≈ 149 µM).

Source: PubChem BioAssay AID1996
